Experimental data reported in patent US20130269064A1, “INSECTICIDAL COMPOUNDS” (SYNGENTA PARTICIPATIONS AG, priority 2010, published 2013).

Tested on: Diabrotica balteata
Assay: Diabrotica balteata (corn root worm) artificial diet test
Type: in vivo
Conditions: 120 h, 200 ppm (concentration in well 18 ppm), L2 larvae, 5 days, larval mortality and growth regulation
Experimental: Diabrotica balteata (Corn Root Worm): A 24-well microtiter plate (MTP) with artificial diet was treated with test solutions at an application rate of 200 ppm (concentration in well 18 ppm) by pipetting. After drying, the MTP's were infested with larvae (L2) (6-10 per well). After an incubation period of 5 days, samples were checked for larval mortality, and growth regulation.

Structure (SMILES) | pest or weed control at 200 ppm [%]
Cc1cc(C#N)ccc1C(=O)Nc1cccc(C(=O)Nc2c(C(F)(F)F)c(C(F)(F)C(F)(F)F)nn2C)c1 [Compound D24] | ≥ 80
Cn1nc(C(F)(F)C(F)(F)F)c(C(F)(F)F)c1NC(=O)c1ccc(Cl)c(NC(=O)c2ccccc2Cl)c1 [Compound E3] | ≥ 80
Cn1nc(C(F)(F)C(F)(F)F)c(C(F)(F)F)c1NC(=O)c1ccc(Cl)c(NC(=O)c2ccc(C#N)cc2)c1 [Compound E4] | ≥ 80
Cn1nc(C(F)(F)C(F)(F)F)c(C(F)(F)F)c1NC(=O)c1ccc(Cl)c(NC(=O)c2ccc([N+](=O)[O-])cc2)c1 [Compound E5] | ≥ 80
Cc1cc(F)ccc1C(=O)Nc1cc(C(=O)Nc2c(C(F)(F)F)c(C(F)(F)C(F)(F)F)nn2C)ccc1Cl [Compound E7] | ≥ 80
Cn1nc(C(F)(F)C(F)(F)F)c(C(F)(F)F)c1NC(=O)c1ccc(Cl)c(NC(=O)c2ccc([N+](=O)[O-])cc2Cl)c1 [Compound E9] | ≥ 80
Cn1nc(C(F)(F)C(F)(F)F)c(C(F)(F)F)c1NC(=O)c1ccc(Cl)c(NC(=O)c2ccc(F)c(C(F)(F)F)c2)c1 [Compound E12] | ≥ 80
Cn1nc(C(F)(F)C(F)(F)F)c(C(F)(F)F)c1NC(=O)c1ccc(Cl)c(NC(=O)c2ccc(C(F)(F)F)cc2)c1 [Compound E13] | ≥ 80
Cn1nc(C(F)(F)C(F)(F)F)c(C(F)(F)F)c1NC(=O)c1ccc(Cl)c(NC(=O)c2ccccc2)c1 [Compound E16] | ≥ 80
Cn1nc(C(F)(F)C(F)(F)F)c(C(F)(F)F)c1NC(=O)c1ccc(Cl)c(NC(=O)c2ccc(F)cc2)c1 [Compound E17] | ≥ 80
Cn1nc(C(F)(F)C(F)(F)F)c(C(F)(F)F)c1NC(=O)c1ccc(Cl)c(NC(=O)c2ccccc2C(F)(F)F)c1 [Compound E18] | ≥ 80
Cn1nc(C(F)(F)C(F)(F)F)c(C(F)(F)F)c1NC(=O)c1ccc(Cl)c(NC(=O)c2ccc(F)cc2Cl)c1 [Compound E19] | ≥ 80
Cn1nc(C(F)(F)C(F)(F)F)c(C(F)(F)F)c1NC(=O)c1ccc(Cl)c(NC(=O)c2cccc(F)c2F)c1 [Compound E21] | ≥ 80
Cc1cc(C#N)ccc1C(=O)Nc1cc(C(=O)Nc2c(C(F)(F)F)c(C(F)(F)C(F)(F)F)nn2C)ccc1Cl [Compound E24] | ≥ 80
Cn1nc(C(F)(F)C(F)(F)F)c(C(F)(F)F)c1NC(=O)c1ccc(C#N)c(NC(=O)c2ccncc2)n1 [Compound F2] | ≥ 80

Tested on: Tetranychus urticae
Assay: Tetranychus urticae (two-spotted spider mite) bean leaf disc test
Type: in vivo
Conditions: foliar, 192 h, 200 ppm sprayed on bean leaf discs, mixed ages, 8 days, egg, larval and adult mortality
From the text: Tetranychus urticae (Two-Spotted Spider Mite): Bean leaf discs on agar in 24-well microtiter plates were sprayed with test solutions at an application rate of 200 ppm. After drying, the leaf discs are infested with mite populations of mixed ages. 8 days later, discs are checked for egg mortality, larval mortality, and adult mortality.

Structure (SMILES) | pest or weed control at 200 ppm [%]
Cc1cc(C#N)ccc1C(=O)Nc1cccc(C(=O)Nc2c(C(F)(F)F)c(C(F)(F)C(F)(F)F)nn2C)c1 [Compound D24] | ≥ 80
Cc1cc(F)ccc1C(=O)Nc1cc(C(=O)Nc2c(C(F)(F)F)c(C(F)(F)C(F)(F)F)nn2C)ccc1Cl [Compound E7] | ≥ 80
Cn1nc(C(F)(F)C(F)(F)F)c(C(F)(F)F)c1NC(=O)c1ccc(Cl)c(NC(=O)c2ccc([N+](=O)[O-])cc2Cl)c1 [Compound E9] | ≥ 80
Cn1nc(C(F)(F)C(F)(F)F)c(C(F)(F)F)c1NC(=O)c1ccc(Cl)c(NC(=O)c2ccc(F)cc2Cl)c1 [Compound E19] | ≥ 80
Cc1cc(C#N)ccc1C(=O)Nc1cc(C(=O)Nc2c(C(F)(F)F)c(C(F)(F)C(F)(F)F)nn2C)ccc1Cl [Compound E24] | ≥ 80
Cn1nc(C(F)(F)C(F)(F)F)c(C(F)(F)F)c1NC(=O)c1ccc(C#N)c(NC(=O)c2ccncc2)n1 [Compound F2] | ≥ 80

Tested on: Plutella xylostella
Assay: Plutella xylostella (diamond back moth) artificial diet test
Type: in vivo
Conditions: 144 h, 200 ppm (concentration in well 18 ppm), L2 larvae, 6 days, larval mortality and growth regulation
Experimental: Plutella xylostella (Diamond Back Moth): A 24-well microtiter plate (MTP) with artificial diet was treated with test solutions at an application rate of 200 ppm (concentration in well 18 ppm) by pipetting. After drying, the MTP's were infested with L2 larvae (7-12 per well). After an incubation period of 6 days, samples were checked for larval mortality and growth regulation.

Structure (SMILES) | pest or weed control at 200 ppm [%]
Cc1cc(C#N)ccc1C(=O)Nc1cccc(C(=O)Nc2c(C(F)(F)F)c(C(F)(F)C(F)(F)F)nn2C)c1 [Compound D24] | ≥ 80
Cn1nc(C(F)(F)C(F)(F)F)c(C(F)(F)F)c1NC(=O)c1ccc(Cl)c(NC(=O)c2ccccc2Cl)c1 [Compound E3] | ≥ 80
Cn1nc(C(F)(F)C(F)(F)F)c(C(F)(F)F)c1NC(=O)c1ccc(Cl)c(NC(=O)c2ccc(C#N)cc2)c1 [Compound E4] | ≥ 80
Cn1nc(C(F)(F)C(F)(F)F)c(C(F)(F)F)c1NC(=O)c1ccc(Cl)c(NC(=O)c2ccc([N+](=O)[O-])cc2)c1 [Compound E5] | ≥ 80
Cc1cc(F)ccc1C(=O)Nc1cc(C(=O)Nc2c(C(F)(F)F)c(C(F)(F)C(F)(F)F)nn2C)ccc1Cl [Compound E7] | ≥ 80
Cn1nc(C(F)(F)C(F)(F)F)c(C(F)(F)F)c1NC(=O)c1ccc(Cl)c(NC(=O)c2ccccc2)c1 [Compound E16] | ≥ 80
Cn1nc(C(F)(F)C(F)(F)F)c(C(F)(F)F)c1NC(=O)c1ccc(Cl)c(NC(=O)c2ccc(F)cc2)c1 [Compound E17] | ≥ 80
Cn1nc(C(F)(F)C(F)(F)F)c(C(F)(F)F)c1NC(=O)c1ccc(Cl)c(NC(=O)c2ccc(F)cc2Cl)c1 [Compound E19] | ≥ 80
Cc1cc(C#N)ccc1C(=O)Nc1cc(C(=O)Nc2c(C(F)(F)F)c(C(F)(F)C(F)(F)F)nn2C)ccc1Cl [Compound E24] | ≥ 80
Cn1nc(C(F)(F)C(F)(F)F)c(C(F)(F)F)c1NC(=O)c1ccc(C#N)c(NC(=O)c2ccncc2)n1 [Compound F2] | ≥ 80

Tested on: Heliothis virescens
Assay: Heliothis virescens (tobacco budworm) egg/artificial diet test
Type: in vivo
Conditions: 96 h, 200 ppm (concentration in well 18 ppm), eggs 0-24 h old on artificial diet, 4 days, egg mortality, larval mortality, growth regulation
Experimental: Heliothis virescens (Tobacco Budworm): Eggs (0-24 h old) were placed in 24-well microtiter plate on artificial diet and treated with test solutions at an application rate of 200 ppm (concentration in well 18 ppm) by pipetting. After an incubation period of 4 days, samples were checked for egg mortality, larval mortality and growth regulation.

Structure (SMILES) | pest or weed control at 200 ppm [%]
Cn1nc(C(F)(F)C(F)(F)F)c(C(F)(F)F)c1NC(=O)c1ccc(Cl)c(NC(=O)c2ccccc2Cl)c1 [Compound E3] | ≥ 80
Cn1nc(C(F)(F)C(F)(F)F)c(C(F)(F)F)c1NC(=O)c1ccc(Cl)c(NC(=O)c2ccc(C#N)cc2)c1 [Compound E4] | ≥ 80
Cn1nc(C(F)(F)C(F)(F)F)c(C(F)(F)F)c1NC(=O)c1ccc(Cl)c(NC(=O)c2ccc([N+](=O)[O-])cc2)c1 [Compound E5] | ≥ 80
Cc1cc(F)ccc1C(=O)Nc1cc(C(=O)Nc2c(C(F)(F)F)c(C(F)(F)C(F)(F)F)nn2C)ccc1Cl [Compound E7] | ≥ 80
Cn1nc(C(F)(F)C(F)(F)F)c(C(F)(F)F)c1NC(=O)c1ccc(Cl)c(NC(=O)c2ccc(C(F)(F)F)cc2)c1 [Compound E13] | ≥ 80
Cn1nc(C(F)(F)C(F)(F)F)c(C(F)(F)F)c1NC(=O)c1ccc(Cl)c(NC(=O)c2ccccc2)c1 [Compound E16] | ≥ 80
Cn1nc(C(F)(F)C(F)(F)F)c(C(F)(F)F)c1NC(=O)c1ccc(Cl)c(NC(=O)c2ccc(F)cc2)c1 [Compound E17] | ≥ 80
Cn1nc(C(F)(F)C(F)(F)F)c(C(F)(F)F)c1NC(=O)c1ccc(Cl)c(NC(=O)c2ccc(F)cc2Cl)c1 [Compound E19] | ≥ 80
Cn1nc(C(F)(F)C(F)(F)F)c(C(F)(F)F)c1NC(=O)c1ccc(Cl)c(NC(=O)c2cccc(F)c2F)c1 [Compound E21] | ≥ 80
Cc1cc(C#N)ccc1C(=O)Nc1cc(C(=O)Nc2c(C(F)(F)F)c(C(F)(F)C(F)(F)F)nn2C)ccc1Cl [Compound E24] | ≥ 80
Cn1nc(C(F)(F)C(F)(F)F)c(C(F)(F)F)c1NC(=O)c1ccc(C#N)c(NC(=O)c2ccncc2)n1 [Compound F2] | ≥ 80

Tested on: Spodoptera littoralis
Assay: Spodoptera littoralis (Egyptian cotton leafworm) cotton leaf disc test
Type: in vivo
Conditions: foliar, 72 h, 200 ppm sprayed on cotton leaf discs, 5 L1 larvae, mortality, feeding behaviour, growth regulation 3 DAT
From the text: Spodoptera littoralis (Egyptian Cotton Leafworm): Cotton leaf discs were placed on agar in a 24-well microtiter plate and sprayed with test solutions at an application rate of 200 ppm. After drying, the leaf discs were infested with 5 L1 larvae. The samples were checked for mortality, feeding behaviour, and growth regulation 3 days after treatment (DAT).

Structure (SMILES) | pest or weed control at 200 ppm [%]
Cc1cc(C#N)ccc1C(=O)Nc1cccc(C(=O)Nc2c(C(F)(F)F)c(C(F)(F)C(F)(F)F)nn2C)c1 [Compound D24] | ≥ 80
Cc1ccccc1C(=O)Nc1cc(C(=O)Nc2c(C(F)(F)F)c(C(F)(F)C(F)(F)F)nn2C)ccc1Cl [Compound E2] | ≥ 80
Cn1nc(C(F)(F)C(F)(F)F)c(C(F)(F)F)c1NC(=O)c1ccc(Cl)c(NC(=O)c2ccccc2Cl)c1 [Compound E3] | ≥ 80
Cn1nc(C(F)(F)C(F)(F)F)c(C(F)(F)F)c1NC(=O)c1ccc(Cl)c(NC(=O)c2ccc(C#N)cc2)c1 [Compound E4] | ≥ 80
Cc1cc(F)ccc1C(=O)Nc1cc(C(=O)Nc2c(C(F)(F)F)c(C(F)(F)C(F)(F)F)nn2C)ccc1Cl [Compound E7] | ≥ 80
Cn1nc(C(F)(F)C(F)(F)F)c(C(F)(F)F)c1NC(=O)c1ccc(Cl)c(NC(=O)c2ccccc2)c1 [Compound E16] | ≥ 80
Cn1nc(C(F)(F)C(F)(F)F)c(C(F)(F)F)c1NC(=O)c1ccc(Cl)c(NC(=O)c2ccc(F)cc2)c1 [Compound E17] | ≥ 80
Cn1nc(C(F)(F)C(F)(F)F)c(C(F)(F)F)c1NC(=O)c1ccc(Cl)c(NC(=O)c2ccc(F)cc2Cl)c1 [Compound E19] | ≥ 80
Cc1cc(C#N)ccc1C(=O)Nc1cc(C(=O)Nc2c(C(F)(F)F)c(C(F)(F)C(F)(F)F)nn2C)ccc1Cl [Compound E24] | ≥ 80
Cc1cc(C#N)ccc1C(=O)Nc1nc(C(=O)Nc2c(C(F)(F)F)c(C(F)(F)C(F)(F)F)nn2C)ccc1C#N [Compound F1] | ≥ 80
